Experimental data: PMC13242297, “Drug response profile-based machine learning enables strategic cell line and compound selection for drug development” (Bioinformatics, 2026)
Like-named read-outs stand apart in the source and are kept apart here.

Tests used:
Type in all cases: cell-based
MCF10A cells = assay: Cell Titer-Glo 3D cell viability assay, 48 h, MCF10A
Description: (§1) Cell Culture: Cell viability was assessed using the MCF7 and MCF10A cell lines. Cells were maintained in relevant media throughout the study, in an incubator set to 37°C and 5% CO2, with media changes every 2–3 days. […] Compound plate preparation: […] Plates were sealed and stored at −4°C prior to use. Viability Assay: […] Plates were incubated for 48 h in a humidified incubator set to 37°C and 5% CO2. […] Cat #G9682). Plates were centrifuged briefly and incubated protected from light for 30 min at 30°C. Luminescence signal was measured using a CLARIOstar Plus microplate reader (BMG Labtech). Data Analysis: Raw relative luminescence unit (RLU) data were de-randomised prior to background subtraction. Viability was determined as a percentage of vehicle control (DMSO only). % Viability = ((Sample RLU—Mean Positive Control) ÷ (Mean Negative Control—Mean Positive Control)) × 100.

MCF7 cells = assay: Cell Titer-Glo 3D cell viability assay, 48 h, MCF7
Description: as §1

[1] = Cell Titer-Glo 3D cell viability assay, 48 h, MCF10A; conditions: human, MCF10A cells, MCF10A, 48 h, % of vehicle control
Description: as §1

[2] = Homo sapiens, MCF-10A; read-out: MCF10 IC50 Reached
[3] = Homo sapiens, MCF7; read-out: MCF7 IC50 Reached
[4] = Homo sapiens, MCF-10A; MCF10A, 48 h viability; read-out: IC50

Row | Compound | IC50 (MCF7 cells; [3]) | IC50 (in words) (MCF7 cells; MCF7, up to […]) | IC50 (MCF10A cells; [2]) | IC50 (in words) (MCF10A cells; MCF10A, up to […]) | IC50 (MCF10A cells; [4]) | other results
1 | Nc1ccn([C@@H]2O[C@H](CO)[C@@H](O)[C@@H]2O)c(=O)n1 [Cytarabine] | > 2500 nM |  | > 2500 nM |  |  | 
2 | Cc1cc([C@@H](C)Nc2ccccc2C(=O)O)c2nc(N3CCOCC3)cc(=O)n2c1 [AZD 6482] | > 2500 nM | did not reach IC50 values | > 2500 nM | did not reach IC50 values |  | 
3 | CC[C@@H]1C(=O)N(C)c2cnc(Nc3ccc(C(=O)NC4CCN(C)CC4)cc3OC)nc2N1C1CCCC1 [BI 2536] |  |  |  |  |  | viability at 48 h, […] ([1]; 0.0025 uM): 92.4%; viability at 48 h, […] ([1]; 0.025 uM): 67.7%; viability at 48 h, […] ([1]; 0.25 uM): 72.3%; viability at 48 h, […] ([1]; 2.5 uM): 33.9%; IC50 (MCF10A cells; Homo sapiens, MCF-10A, 48 h): ~1000 nM; IC50 (MCF10A cells; Homo sapiens, MCF-10A, read-out: MCF10 IC50 Reached): < 2500 nM; IC50 (MCF7 cells; Homo sapiens, MCF7, 48 h): < 100 nM; IC50 (MCF7 cells; Homo sapiens, MCF7, read-out: MCF7 IC50 Reached): < 2500 nM

The next lines start with results.

Row | IC50 (MCF7 cells; [3]) | IC50 (in words) (MCF7 cells; MCF7, up to […]) | Compound | IC50 (MCF10A cells; [2]) | IC50 (in words) (MCF10A cells; MCF10A, up to […]) | IC50 (MCF10A cells; [4]) | other results
4 | < 2500 nM |  | NS(=O)(=O)OC[C@@H]1C[C@@H](n2ccc3c(N[C@H]4CCc5ccccc54)ncnc32)C[C@@H]1O [Pevonedistat] | > 2500 nM |  | > 2500 nM | IC50 (MCF7 cells; Homo sapiens; MCF7, 48 h viability; read-out: IC50): < 100 nM
5 | > 2500 nM | did not reach IC50 values | Nc1nc2[nH]cc(CCc3ccc(C(=O)N[C@@H](CCC(=O)O)C(=O)O)cc3)c2c(=O)[nH]1 [Pemetrexed] | > 2500 nM | did not reach IC50 values |  | 
6 | > 2500 nM |  | Nc1ccn([C@@H]2O[C@H](CO)[C@@H](O)C2(F)F)c(=O)n1 [Gemcitabine] | < 2500 nM |  | < 250 nM | 
